In PubChem BioAssay (NCI):
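Following 48 hours of exposure in 96-well plates, responses at five concentrations were used to interpolate endpoints linearly. TGI marks complete inhibition of growth.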

How the values were obtained:
Assay in all cases: growth of human tumour cells (NCI), 48 h
786-0 renal = tested on: 786-0 renal
A498 renal = tested on: A498 renal
A549 NSCLC = tested on: A549 NSCLC
ACHN renal = tested on: ACHN renal
BT-549 breast = tested on: BT-549 breast
CAKI-1 renal = tested on: CAKI-1 renal
CCRF-CEM leukemia = tested on: CCRF-CEM leukemia
COLO 205 colon = tested on: COLO 205 colon
DLD-1 colon = tested on: DLD-1 colon
DMS 114 small cell lung = tested on: DMS 114 small cell lung
DMS 273 small cell lung = tested on: DMS 273 small cell lung
DU-145 prostate = tested on: DU-145 prostate
EKVX NSCLC = tested on: EKVX NSCLC
HCC-2998 colon = tested on: HCC-2998 colon
HCT-116 colon = tested on: HCT-116 colon
HCT-15 colon = tested on: HCT-15 colon
HL-60(TB) leukemia = tested on: HL-60(TB) leukemia
HOP-18 NSCLC = tested on: HOP-18 NSCLC
HOP-62 NSCLC = tested on: HOP-62 NSCLC
HOP-92 NSCLC = tested on: HOP-92 NSCLC
HS 578T breast = tested on: HS 578T breast
HT29 colon = tested on: HT29 colon
IGROV1 ovarian = tested on: IGROV1 ovarian
K-562 leukemia = tested on: K-562 leukemia
KM12 colon = tested on: KM12 colon
KM20L2 colon = tested on: KM20L2 colon
LOX IMVI melanoma = tested on: LOX IMVI melanoma
LXFL 529 NSCLC = tested on: LXFL 529 NSCLC
M14 melanoma = tested on: M14 melanoma
M19-MEL melanoma = tested on: M19-MEL melanoma
MALME-3M melanoma = tested on: MALME-3M melanoma
MCF7 breast = tested on: MCF7 breast
MDA-MB-231 breast = tested on: MDA-MB-231 breast
MDA-MB-435 = tested on: MDA-MB-435
MDA-N = tested on: MDA-N
MOLT-4 leukemia = tested on: MOLT-4 leukemia
NCI-H226 lung = tested on: NCI-H226 lung
NCI-H23 lung = tested on: NCI-H23 lung
NCI-H460 lung = tested on: NCI-H460 lung
NCI-H522 lung = tested on: NCI-H522 lung
NCI/ADR-RES ovarian = tested on: NCI/ADR-RES ovarian
OVCAR-3 ovarian = tested on: OVCAR-3 ovarian
OVCAR-4 ovarian = tested on: OVCAR-4 ovarian
OVCAR-5 ovarian = tested on: OVCAR-5 ovarian
OVCAR-8 ovarian = tested on: OVCAR-8 ovarian
PC-3 prostate = tested on: PC-3 prostate
RPMI-8226 leukemia = tested on: RPMI-8226 leukemia
RXF 393 renal = tested on: RXF 393 renal
SF-268 CNS = tested on: SF-268 CNS
SF-295 CNS = tested on: SF-295 CNS
SF-539 CNS = tested on: SF-539 CNS
SK-MEL-2 melanoma = tested on: SK-MEL-2 melanoma
SK-MEL-28 melanoma = tested on: SK-MEL-28 melanoma
SK-MEL-5 melanoma = tested on: SK-MEL-5 melanoma
SK-OV-3 ovarian = tested on: SK-OV-3 ovarian
SN12C renal = tested on: SN12C renal
SNB-19 CNS = tested on: SNB-19 CNS
SNB-75 CNS = tested on: SNB-75 CNS
SNB-78 CNS = tested on: SNB-78 CNS
SR leukemia = tested on: SR leukemia
SW-620 colon = tested on: SW-620 colon
T-47D breast = tested on: T-47D breast
TK-10 renal = tested on: TK-10 renal
U251 CNS = tested on: U251 CNS
UACC-257 melanoma = tested on: UACC-257 melanoma
UACC-62 melanoma = tested on: UACC-62 melanoma
UO-31 renal = tested on: UO-31 renal
XF 498 CNS = tested on: XF 498 CNS

Nc1ccc(Sc2c3ccccc3nc3ccccc23)cc1
TGI (786-0 renal): 14.7 µM | TGI (A498 renal): > 100 µM | TGI (A549 NSCLC): > 100 µM | TGI (ACHN renal): 28.3 µM | TGI (BT-549 breast): 27.4 µM | TGI (CAKI-1 renal): 39 µM | TGI (CCRF-CEM leukemia): 30.2 µM | TGI (COLO 205 colon): 37.6 µM | TGI (DLD-1 colon): 19.7 µM | TGI (DMS 114 small cell lung): 38 µM | TGI (DMS 273 small cell lung): 28.8 µM | TGI (DU-145 prostate): 28.7 µM | TGI (EKVX NSCLC): 58.9 µM | TGI (HCC-2998 colon): 59.5 µM | TGI (HCT-116 colon): 26.1 µM | TGI (HCT-15 colon): 36.7 µM | TGI (HL-60(TB) leukemia): 10.7 µM | TGI (HOP-18 NSCLC): 41.7 µM | TGI (HOP-62 NSCLC): 56.9 µM | TGI (HOP-92 NSCLC): > 38 µM | TGI (HS 578T breast): > 68.4 µM | TGI (HT29 colon): 32 µM | TGI (IGROV1 ovarian): 37.6 µM | TGI (K-562 leukemia): 22.6 µM | TGI (KM12 colon): 40.4 µM | TGI (KM20L2 colon): 33.1 µM | TGI (LOX IMVI melanoma): 13.9 µM | TGI (LXFL 529 NSCLC): 21 µM | TGI (M14 melanoma): 30.1 µM | TGI (M19-MEL melanoma): 47.9 µM | TGI (MALME-3M melanoma): 36.2 µM | TGI (MCF7 breast): 28.8 µM | TGI (MDA-MB-231 breast): 28.1 µM | TGI (MDA-MB-435): 35.1 µM | TGI (MDA-N): 38.5 µM | TGI (MOLT-4 leukemia): 27.1 µM | TGI (NCI-H226 lung): 58.4 µM | TGI (NCI-H23 lung): 36.7 µM | TGI (NCI-H460 lung): 49.5 µM | TGI (NCI-H522 lung): 16 µM | TGI (NCI/ADR-RES ovarian): 36 µM | TGI (OVCAR-3 ovarian): 29.2 µM | TGI (OVCAR-4 ovarian): 29.4 µM | TGI (OVCAR-5 ovarian): 52 µM | TGI (OVCAR-8 ovarian): 28.6 µM | TGI (PC-3 prostate): 25.7 µM | TGI (RPMI-8226 leukemia): 17.4 µM | TGI (RXF 393 renal): 40.4 µM | TGI (SF-268 CNS): 40.5 µM | TGI (SF-295 CNS): 47.5 µM | TGI (SF-539 CNS): 31 µM | TGI (SK-MEL-2 melanoma): 34.1 µM | TGI (SK-MEL-28 melanoma): 24.8 µM | TGI (SK-MEL-5 melanoma): 30.6 µM | TGI (SK-OV-3 ovarian): 59.8 µM | TGI (SN12C renal): 36.1 µM | TGI (SNB-19 CNS): 51.6 µM | TGI (SNB-75 CNS): 36.2 µM | TGI (SNB-78 CNS): 53.3 µM | TGI (SR leukemia): 32.4 µM | TGI (SW-620 colon): 39 µM | TGI (T-47D breast): 5.6 µM | TGI (TK-10 renal): 34.2 µM | TGI (U251 CNS): 28 µM | TGI (UACC-257 melanoma): 33.1 µM | TGI (UACC-62 melanoma): 30.5 µM | TGI (UO-31 renal): 34.3 µM | TGI (XF 498 CNS): 28 µM
